# Experiments:
# [1] = tested on: purified naïve B cells from healthy donors; conditions: for effect on plasma cell differentiation without or with heme: 2.5 μM compound, without or with 5 μM heme; for inhibition of B cell proliferation / inhibition of plasma cell differentiation: at the highest concentrations
# Method: Hemin and RBC lysate preparation. Hemin, dissolved in dimethyl sulfoxide (DMSO), stock concentration 10 mM, was diluted to 100 μM with serum-free RPMI 1640 culture medium just prior to addition to B cell cultures. For short-term experiments lasting less than 24 hr, a final concentration of 10 μM hemin was used whereas for longer-term culture up to 7 days, 2.5-5 μM final heme concentration was used. RBC lysates were freshly prepared (containing ~80 g/L hemoglobin) for same day use. Briefly, 4 ml whole blood from healthy donors was passed through Acrodisc WBC syringe filter (Pall Corporation) to remove white blood cells followed by two washes with Dulbecco's Phosphate Buffered Saline (D-PBS) (200×g, 10 min at room temperature with no brake) for removal of platelets. The RBC pellet was lysed with 3 times volume of distilled water for 10 min at 37° C. Cellular debris was pelleted by centrifugation at 4000×g for 10 min at 4° C. The RBC lysate was transferred to a new tube and 1/9 volume of 10×D-PBS added.
# Cell isolation and culture. Peripheral blood mononuclear cells (PBMCs) were prepared by Ficoll (GE Healthcare) density gradient centrifugation from healthy donor leukopak products as well as from sickle peripheral blood apheresis waste bags. Human naïve and memory B cells were isolated from PBMCs using a human memory B Cell Isolation Kit (Miltenyi Biotec) by collecting CD27− B cells (naïve B cells) and CD27+ B cell (memory B cells) separately. […] RPMI 1640 culture medium was used for all cell culture experiments (supplemented with 10% FBS, 100-unit penicillin-streptomycin, […], 1 mM sodium pyruvate, all from Thermo Fisher Scientific). Purified B cells were stained with CFSE (Cat #: C34554, Thermo Fisher Scientific) and cultured in U-bottom 96 well plates (2.5×10^5/well/200 μl culture medium) in the presence of goat anti-human IgA+IgG+IgM (H+L) F(ab′)2 fragment (2.5 μg/ml, Jackson ImmunoResearch), CD154 (10 ng/ml, R&D Systems) and CpG (ODN 7909, 1 nM, Cat #: tlrl-2006-1) without IL-2 for analysis of only CD38+ plasmablast differentiation or with IL-2 (5 ng/ml, Cat #:1081-IL-020, R&D Systems) in experiments to detect CD27^hiBlimp-1+ plasma cells. In addition, heme and various inhibitors were added to the cultures at the start point and incubated for 7 days.
# (§1) Cultured cells: stimulated B cells were transferred into U bottom 96 well plate and washed with 200 μl MACS buffer (D-PBS containing 0.5% BSA and 2 mM EDTA) at 300×g for 5 min at 4° C. After one wash, cells were stained for surface expression of CD19, CD38, CD27 using 25 μl staining buffer (anti-CD19, CD38, CD27 antibodies, diluted 200 fold with MACS buffer) for 30 min at 4° C. After one wash with 200 μl MACS buffer, cells were resuspended in 100 μl D-PBS and 50 μl Fixable Viability Dye eFluor™ 780 (1000 fold diluted with D-PBS, Thermo Fisher Scientific) was added for dead cell detection for 5 min at room temperature. Cells were washed one time with MACS buffer and 100 μl D-DPS was added just before flow cytometric analysis (LSRFortessa flow cytometer, BD Bioscience). For intracellular staining of IgG, Blimp-1 and HO-1, samples were first washed with 200 μl MACS buffer before addition of 150 μl Fixation/Permeabilization buffer (Thermo Fisher Scientific) for 45 min at 4° C. After fixation, samples were washed twice with 1× Permeabilization buffer (Thermo Fisher Scientific) and stained with 25 μl intracellular staining buffer (anti-human IgG, DOCK8, Blimp-1, HO-1 antibodies, diluted 200 fold with 1× Permeabilization buffer) for 45 min at 4° C., after which the cells were washed twice with Permeabilization buffer and 100p D-DPS was added prior to flow cytometric analysis.
# [2] = tested on: naïve B cells from Allo(−) and Allo(+) SCD patients; assay: 7-day stimulated naïve B cell culture from SCD patients; type: cell-based, human; conditions: for effect on heme-mediated inhibition of plasmablast differentiation: SnPPIX 2.5 μM, heme 2.5 μM
# Method: Human samples. All studies were approved by the institutional Review Boards of the New York Blood Center (NYBC) and Montefiore Health Center. […] The blood samples from SCD patients were processed within 18 hours after collection. For circulating DOCK8 expression studies in healthy controls, peripheral blood samples from de-identified, race-matched healthy donors were used. Leukocyte enriched products from de-identified healthy donors were used for purification of B cells for in vitro culture studies.
# Cell isolation and culture. Peripheral blood mononuclear cells (PBMCs) were prepared by Ficoll (GE Healthcare) density gradient centrifugation from healthy donor leukopak products as well as from sickle peripheral blood apheresis waste bags. Human naïve and memory B cells were isolated from PBMCs using a human memory B Cell Isolation Kit (Miltenyi Biotec) by collecting CD27− B cells (naïve B cells) and CD27+ B cell (memory B cells) separately. […] In addition, heme and various inhibitors were added to the cultures at the start point and incubated for 7 days.
# as §1
# DOCK8 = DOCK8 expression and DOCK8hi/DOCK8lo subsets in stimulated B cells; type: cell-based, human; conditions: quinine in the presence of heme
# From the text: We next tested the effect of cell-free heme on DOCK8 signaling during B cell differentiation. […] Heme treatment led to inhibition of CD27^hiBlimp-1^+ plasma cell differentiation (FIG. 2D, p=0.0195).
# SCD mice = assay: RBC alloimmunization in SCD mice after huGPA RBC transfusion (anti-GPA antibody in plasma); type: in vivo, mouse; conditions: QA 12 mg/kg intraperitoneally twice per day
# Method: FIG. 10A-C. Effects of heme and quinine on mouse B cell differentiation in vitro: Splenic B cells were purified from C57BL/6J mice (n=3), stained with CFSE and cultured (5×10^4/well) for 7 days in the presence of anti-mouse IgM, IgG F(ab)′2 (10 μg/ml), anti-mouse CD40 antibody (1 μg/ml) and CpG (ODN1826) (1 μg/ml) without or with different doses of quinine and in the absence or presence of 2.5 μM or 5 μM concentration of hemin. Fold difference in proliferated B cells (FIG. 10A) and CD138+ plasma B cells (FIG. 10B) are shown. FIG. 10C: Representative experiment in SCD mice following transfusion of RBCs expressing human GPA (huGPA RBCs) collected from mice transgenic for human GPA in the absence or presence of quinine (QA). Briefly, mice were transfused twice with […] of huGPA RBCs, each transfusion given one week apart. Mice were treated intraperitoneally twice per day with QA (12 mg/kg, reported to maintain serum quinine levels at 0.5~1 μM) or the same volume PBS. Levels of anti-GPA antibody in plasma were measured 7 days after the last transfusion by flow cytometry.
# [3] = QA 12 mg/kg intraperitoneally twice per day; cited from earlier work
# HO-1 = HO-1 expression in stimulated B cells; type: cell-based, human; conditions: for HO-1 upregulation: 2.5 μM compound with 5 μM heme
# From the text: HO-1 is a key enzyme for heme degradation with multiple biologic activities attributed to its enzymatic byproducts. We analyzed HO-1 expression levels in human B cells before and after stimulation with our polyclonal B cell activation cocktail. […] We also found higher HO-1 levels in DOCK8^hi plasma cells (FIG. 8B).
# [4] = tested on: NLRP3 inflammasome pathway; assay: NLRP3 inflammasome activation, IL-1β secretion by LPS-primed monocytes; type: cell-based, human; conditions: in the presence/absence of hemin
# Method: FIG. 13A-D depicts human monocytes isolated from peripheral blood were cultured with LPS for 3 hours to prime pro-IL-1β production followed by addition of various NLRP3 pathway agonists to trigger IL-1β secretion without or with therapeutic reagents including hemin, quinine or hemin plus quinine (all at 2.5 μM concentration for all experiments except the dose response studies in FIGS. 13B and C). Levels of IL-1β, IL-6 and TNF-α in the culture supernatants was analyzed 30 min (for ATP treatment) or 2 hours (for nigericin and imiquimod) after addition of NLRP3 agonists. FIG. 13A: The effect of hemin, quinine and hemin plus quinine on IL-1β secretion triggered by various NLRP3 agonists. FIG. 13B: The dose dependent effect of hemin, quinine and hemin plus quinine. FIG. 13C: The effect of QA, CQ, AQ, and DHA in the presence/absence of hemin. FIG. 13D: The effect of hemin, quinine, or hemin plus quinine on IL-6 and TNF-α.
molecule,measurement,setting,value
"C=C[C@H]1C[N@@]2CC[C@H]1C[C@H]2[C@H](O)c1ccnc2ccc(OC)cc12 [quinine, (R)-(6-Methoxyquinolin-4-yl)[(1S,2S,4S,5R)-5-vinylquinuclidin-2-yl]methanol]",effect on plasma cell differentiation without or with heme,[1],required the presence of heme
same,cytotoxic effects (viability studies),[1]; except at the highest doses of heme plus quinine,minimal cytotoxic effects
same,effect on resistance to heme suppression,"[2]; Allo(+) patients, quinine plus heme",reversed resistance to heme suppression
same,effect on heme-mediated suppression of plasma cells,"[2]; Allo(−) SCD patients, quinine plus heme",further increased heme-mediated suppression
same,effect on plasma cell differentiation in the absence of heme,[2]; both groups of SCD patients,weak but significant inhibitory effect
same,effect on DOCK8 expression,DOCK8,no significant effect
same,RBC alloimmunization levels in vivo,SCD mice,did not lower
same,serum quinine levels,[3],0.5~1 μM
"CCN(CC)Cc1cc(Nc2ccnc3cc(Cl)ccc23)ccc1O [AQ, amodiaquine]",effect on plasma cell differentiation without or with heme,[1],inhibited plasma cell differentiation in the absence or presence of heme
same,HO-1 upregulation,HO-1,not
same,effect of other hemin binding small molecules on the inflammasome activation pathway,[4],no inhibitory effect
Cl.Cl.NCCNc1ncc(C(N)=O)c(Nc2cccc(C(F)(F)F)c2)n1 [Syk Inhibitor II],HO-1 in stimulated B cells,HO-1; SYK inhibitor relative to no SYK inhibitor,induction of HO-1
"C=Cc1c2[n-]c(c1C)/C=c1\[n-]/c(c(C)c1C=C)=C\c1[n-]c(c(CCC(=O)O)c1C)C=c1[n-]/c(c(C)c1CCC(=O)O)=C\2.[Sn+4] [SnPPIX, tin protoporphyrin IX]",effect on heme-mediated inhibition of plasmablast cell differentiation,[1]; SnPPIX 2.5 μM with heme 2.5 μM,reversed
same,effect on differentiation,[1]; SnPPIX alone 2.5 μM,no effect
same,frequency of CD38+ plasmablasts,"[1]; SnPPIX alone 2.5 μM, vs 6.3%±2.7%",8.1%±3.5%
same,effect on B cell proliferation,"[1]; heme 2.5 μM, SnPPIX 2.5 μM, alone or together",little to no effect
same,effect on heme-mediated inhibition of plasmablast differentiation,[2]; Allo(+) SCD patients,less effect
same,effect on heme-mediated inhibition of plasmablast differentiation,[2]; Allo(−) SCD patients,reversed heme-mediated inhibition
same,"B cell proliferative responses, Allo(+) versus Allo(−)",[2]; in the presence of SnPPIX 2.5 μM,comparable
C=CC1=C(C)/C(=C/C2=NC(=C\c3[nH]c(/C=C4\NC(=O)C(C)=C4C=C)c(C)c3CCC(=O)O)/C(CCC(=O)O)=C2C)NC1=O [biliverdin],inhibition of B cell proliferation,[1],13.3%±3.5%
same,inhibition of plasma cell differentiation,[1],68.4%±18.6%
"NCC(=O)O.[C-]#[O+].[C-]#[O+].[C-]#[O+].[Cl][Ru] [CORM-3, carbon monoxide releasing molecule-3]",inhibition of B cell proliferation,[1],38.7%±5.0%
same,inhibition of plasma cell differentiation,[1],91.2%±2.9%
"C[C@H]1[C@@H](O)O[C@@H]2O[C@@]3(C)CC[C@H]4[C@H](C)CC[C@@H]1[C@@]24OO3 [DHA, dihydroartemisinin]",effect of other hemin binding small molecules on the inflammasome activation pathway,[4],no inhibitory effect
"CCN(CC)CCCC(C)Nc1ccnc2cc(Cl)ccc12 (stereo not shown) [CQ, chloroquine]",effect on plasma cell differentiation without or with heme,[1],inhibited plasma cell differentiation in the absence or presence of heme
same,HO-1 upregulation,HO-1,not
same,effect of other hemin binding small molecules on the inflammasome activation pathway,[4],no inhibitory effect
"hemopexin: a heme scavenging protein (protein, UniProt P02790 24-462, looked up) Hemopexin: TPLPPTSAHGNVAEGETKPDPDVTERCSDGWSFDATTLDDNGTMLFFKGEFVWKSHKWDRELISERWKNFPSPVDAAFRQGHNSVFLIKGDKVWVYPPEKKEKGYPKLLQDEFPGIPSPLDAAVECHRGECQAEGVLFFQGDREWFWDLATGTMKERSWPAVGNCSSALRWLGRYYCFQGNQFLRFDPVRGEVPPRYPRDVRDYFMPCPGRGHGHRNGTGHGNSTHHGPEYMRCSPHLVLSALTSDNHGATYAFSGTHYWRLDTSRDGWHSWPIAHQWPQGPSAVDAAFSWEEKLYLVQGTQVYVFLTKGGYTLVSGYPKRLEKEVGTPHGIILDSVDAAFICPGSSRLHIMAGRRLWWLDLKSGAQATWTELPWPHEKVDGALCMEKSLGPNSCSANGPGLYLIHGPNLYCYSDVEKLNAAKALPQPQNVTSLLGCTH",effect of pre-incubation with hemopexin on inhibition by RBC lysate or free heme,"[1]; hemopexin 2.5 μM, RBC lysate 1 g/L hemoglobin or heme 2.5 μM",reversed the inhibitory effect

# From patent US12678433B2, “Compounds for treatment of hemolysis-and inflammasome-associated diseases” (New York Blood Center, Inc., priority 2020, dated 2026)
